Laboratory results reported in patent publication US20240009143A1, “EXTRACTION OF SHIKONIN FROM ARNEBIA DECUMBENS ROOTS AND USE OF SHIKONIN DERIVATIVES FOR TREATING ULCERS” (KUWAIT UNIVERSITY, priority 2022, published 2024).

System: Heliobacter pylori
Experiment: In vitro testing on H. pylori
Assay type: cell-based
Conditions: dose of 0.06 mg
Description: The biological activity of the 4 shikonin derivatives were tested against 2 microorganisms Heliobacter pylori (H. pylori or HP) and Candida albicans (C. albicans).

| Compound | inhibition associated with H. pylori |
| --- | --- |
| CC(=O)O[C@H](CC=C(C)C)C1=CC(=O)c2c(O)ccc(O)c2C1=O [compound D, acetylshikonin] | 41.6% |
| CC(C)=CC[C@@H](O)C1=CC(=O)c2c(O)ccc(O)c2C1=O [compound E, shikonin] | 41.6% |
